Source: patent US8129417B2, “Substituted octahydrocyclopenta[C]pyrrol-4-amines as calcium channel blockers” (Abbott Laboratories, priority 2008, dated 2012)

Molecular target: human Cav2.2 (Homo sapiens, UniProt Q00975)
Test: Assessment of calcium channel activity using FLIPR (Ca2+ influx in IMR32 cells)
Type: cell-based
Details: 3 minute pre-incubation with compound (*), 2 μM nifedipine, depolarized with 80 mM KCl
Method: (i) In Vitro Methods—Assessment of Calcium Channel Activity Using FLIPR:
The IMR32 cells were maintained in MEM media containing 10% (v/v) FBS, 1% (v/v) antibiotic/antimitotic, 1% (v/v) sodium pyruvate and 1% (v/v) MEM NEAA. Following dissociation in 0.05% (v/v) trypsin/EDTA, cells were seeded into black 1×96-well plates (Corning Cellbind) at a density of 1-1.2×10^5 cells/well and incubated in the maintenance media above for 48 hours at 37° C. […] To determine the IC50 values, the percent inhibition of the compound at each concentration was determined relative to the activity in the absence of inhibitor, and data was fitted using non-linear regression sigmoidal dose response curve analysis with GraphPad Prism®.

Chain of human Cav2.2 (Q00975 whole entry): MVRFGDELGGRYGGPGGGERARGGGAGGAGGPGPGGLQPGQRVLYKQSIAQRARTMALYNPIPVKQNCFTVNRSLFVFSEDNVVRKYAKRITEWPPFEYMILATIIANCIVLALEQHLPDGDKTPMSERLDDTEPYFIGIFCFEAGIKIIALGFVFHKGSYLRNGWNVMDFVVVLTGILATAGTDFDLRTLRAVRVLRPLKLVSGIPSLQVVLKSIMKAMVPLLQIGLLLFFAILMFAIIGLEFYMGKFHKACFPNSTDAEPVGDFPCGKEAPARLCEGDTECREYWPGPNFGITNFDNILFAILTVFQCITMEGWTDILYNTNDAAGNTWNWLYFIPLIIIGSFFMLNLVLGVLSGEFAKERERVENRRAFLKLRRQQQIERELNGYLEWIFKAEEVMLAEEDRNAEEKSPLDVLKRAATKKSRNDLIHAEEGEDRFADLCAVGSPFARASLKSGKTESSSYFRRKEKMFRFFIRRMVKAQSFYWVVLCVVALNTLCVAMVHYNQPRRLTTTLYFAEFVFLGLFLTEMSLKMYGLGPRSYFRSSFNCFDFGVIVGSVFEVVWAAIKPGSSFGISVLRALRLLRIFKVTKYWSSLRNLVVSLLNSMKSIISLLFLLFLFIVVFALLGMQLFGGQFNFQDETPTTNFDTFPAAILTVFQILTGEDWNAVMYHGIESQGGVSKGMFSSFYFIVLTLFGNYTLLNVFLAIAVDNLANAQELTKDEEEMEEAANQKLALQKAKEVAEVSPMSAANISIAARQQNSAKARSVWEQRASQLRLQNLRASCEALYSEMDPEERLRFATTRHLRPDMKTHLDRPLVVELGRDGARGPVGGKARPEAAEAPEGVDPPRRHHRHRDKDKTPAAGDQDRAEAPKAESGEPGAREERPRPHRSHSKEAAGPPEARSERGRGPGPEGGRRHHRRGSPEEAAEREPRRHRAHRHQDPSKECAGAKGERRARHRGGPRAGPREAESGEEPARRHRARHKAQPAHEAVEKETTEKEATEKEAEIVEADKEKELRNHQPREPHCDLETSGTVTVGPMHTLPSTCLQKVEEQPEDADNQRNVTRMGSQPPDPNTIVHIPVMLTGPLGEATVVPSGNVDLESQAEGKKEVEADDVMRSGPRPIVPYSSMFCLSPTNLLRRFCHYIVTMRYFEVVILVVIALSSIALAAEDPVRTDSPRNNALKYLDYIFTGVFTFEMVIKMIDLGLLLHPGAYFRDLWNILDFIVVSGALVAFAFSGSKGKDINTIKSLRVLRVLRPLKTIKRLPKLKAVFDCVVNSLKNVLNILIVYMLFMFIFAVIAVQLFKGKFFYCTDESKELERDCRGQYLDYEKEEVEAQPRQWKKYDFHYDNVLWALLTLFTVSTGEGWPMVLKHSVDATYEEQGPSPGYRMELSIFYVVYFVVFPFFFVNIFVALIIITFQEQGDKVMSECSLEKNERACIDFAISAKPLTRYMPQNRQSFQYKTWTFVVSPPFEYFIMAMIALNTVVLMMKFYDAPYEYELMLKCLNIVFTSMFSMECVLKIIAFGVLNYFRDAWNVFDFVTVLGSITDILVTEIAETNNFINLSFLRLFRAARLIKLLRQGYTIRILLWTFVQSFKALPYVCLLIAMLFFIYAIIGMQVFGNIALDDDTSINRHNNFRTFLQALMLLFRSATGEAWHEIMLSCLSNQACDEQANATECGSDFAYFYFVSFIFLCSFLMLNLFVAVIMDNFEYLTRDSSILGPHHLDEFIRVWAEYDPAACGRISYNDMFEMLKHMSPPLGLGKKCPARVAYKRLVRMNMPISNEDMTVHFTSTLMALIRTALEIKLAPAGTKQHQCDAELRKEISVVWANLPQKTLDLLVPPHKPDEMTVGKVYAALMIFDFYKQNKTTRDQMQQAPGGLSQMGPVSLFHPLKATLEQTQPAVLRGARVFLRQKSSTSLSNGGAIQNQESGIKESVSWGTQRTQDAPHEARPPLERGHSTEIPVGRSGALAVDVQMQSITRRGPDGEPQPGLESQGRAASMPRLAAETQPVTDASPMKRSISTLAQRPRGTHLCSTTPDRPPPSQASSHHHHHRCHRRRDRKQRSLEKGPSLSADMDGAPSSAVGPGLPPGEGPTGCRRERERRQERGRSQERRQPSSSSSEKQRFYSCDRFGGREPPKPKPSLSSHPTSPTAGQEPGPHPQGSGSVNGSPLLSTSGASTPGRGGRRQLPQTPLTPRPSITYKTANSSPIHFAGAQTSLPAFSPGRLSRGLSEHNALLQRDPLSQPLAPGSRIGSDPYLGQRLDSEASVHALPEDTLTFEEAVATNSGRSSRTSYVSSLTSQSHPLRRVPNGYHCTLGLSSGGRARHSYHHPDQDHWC
Chain of human Cav2.2 (P54289 25-946 partner limits assumed): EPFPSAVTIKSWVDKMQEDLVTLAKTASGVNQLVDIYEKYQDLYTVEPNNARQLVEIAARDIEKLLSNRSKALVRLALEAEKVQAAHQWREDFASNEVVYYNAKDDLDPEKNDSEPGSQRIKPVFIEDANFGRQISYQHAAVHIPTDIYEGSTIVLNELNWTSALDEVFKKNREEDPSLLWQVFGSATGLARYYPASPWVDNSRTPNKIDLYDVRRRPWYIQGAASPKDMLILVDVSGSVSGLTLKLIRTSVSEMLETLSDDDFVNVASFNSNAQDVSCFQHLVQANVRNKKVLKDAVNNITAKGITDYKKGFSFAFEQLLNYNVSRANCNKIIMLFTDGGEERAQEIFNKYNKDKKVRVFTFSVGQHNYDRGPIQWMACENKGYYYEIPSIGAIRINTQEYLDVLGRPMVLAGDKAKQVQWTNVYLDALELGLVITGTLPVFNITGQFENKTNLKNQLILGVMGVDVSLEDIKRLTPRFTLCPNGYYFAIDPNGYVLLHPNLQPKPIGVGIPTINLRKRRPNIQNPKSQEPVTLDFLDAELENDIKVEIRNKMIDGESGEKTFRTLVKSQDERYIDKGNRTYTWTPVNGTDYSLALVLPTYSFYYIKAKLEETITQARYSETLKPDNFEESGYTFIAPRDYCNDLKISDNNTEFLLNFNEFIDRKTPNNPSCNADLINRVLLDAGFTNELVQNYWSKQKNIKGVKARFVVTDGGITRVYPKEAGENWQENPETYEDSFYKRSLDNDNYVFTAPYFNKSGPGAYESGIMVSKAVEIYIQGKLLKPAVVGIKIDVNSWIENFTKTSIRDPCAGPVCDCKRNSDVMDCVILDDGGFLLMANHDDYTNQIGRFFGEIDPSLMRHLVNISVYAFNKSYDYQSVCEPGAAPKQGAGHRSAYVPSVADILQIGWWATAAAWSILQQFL
Chain of human Cav2.2 (P54289 947-1103 partner limits assumed): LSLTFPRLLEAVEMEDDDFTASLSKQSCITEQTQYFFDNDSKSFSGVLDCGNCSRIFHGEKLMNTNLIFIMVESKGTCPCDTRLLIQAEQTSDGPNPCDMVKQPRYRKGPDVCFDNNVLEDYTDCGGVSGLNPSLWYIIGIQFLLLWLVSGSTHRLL
Chain of human Cav2.2 (P54284 whole entry partner): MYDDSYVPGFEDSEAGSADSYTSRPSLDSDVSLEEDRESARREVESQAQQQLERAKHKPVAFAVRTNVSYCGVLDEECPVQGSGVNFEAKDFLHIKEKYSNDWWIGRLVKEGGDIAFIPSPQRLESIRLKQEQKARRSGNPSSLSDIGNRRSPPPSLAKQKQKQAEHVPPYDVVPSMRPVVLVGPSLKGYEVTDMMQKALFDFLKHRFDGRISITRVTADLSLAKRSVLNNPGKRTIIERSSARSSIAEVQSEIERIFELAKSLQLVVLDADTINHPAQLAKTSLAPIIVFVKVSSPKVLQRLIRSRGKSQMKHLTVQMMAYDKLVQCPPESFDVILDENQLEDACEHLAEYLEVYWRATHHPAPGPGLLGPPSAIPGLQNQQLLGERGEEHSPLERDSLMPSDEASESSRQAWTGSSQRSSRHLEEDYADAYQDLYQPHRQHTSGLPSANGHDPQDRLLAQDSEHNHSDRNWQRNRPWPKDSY

| IC50 | SMILES |
| --- | --- |
| 10100 nM | CCCC(CCC)C(=O)N[C@@H]1CC[C@H]2CN(Cc3ccccc3)C[C@H]21 [Example 21, N-[(3aS,4R,6aR)-2-benzyloctahydrocyclopenta[c]pyrrol-4-yl]-2-propylpentanamide] |
| 14700 nM | O=C(N[C@@H]1CC[C@H]2CN(Cc3ccccc3)C[C@H]21)C1CCCCCC1 [Example 22, N-[(3aS,4R,6aR)-2-benzyloctahydrocyclopenta[c]pyrrol-4-yl]cycloheptanecarboxamide] |
| 2900 nM | O=C(N[C@@H]1CC[C@H]2CN(Cc3ccccc3)C[C@H]21)C1(c2ccccc2)CCCCC1 [Example 24, N-[(3aS,4R,6aR)-2-benzyloctahydrocyclopenta[c]pyrrol-4-yl]-1-phenylcyclohexanecarboxamide] |
| 3700 nM | O=C(N[C@@H]1CC[C@H]2CN(Cc3ccccc3)C[C@H]21)C(Cc1ccccc1)c1ccccc1 (stereo partly drawn) [Example 25, N-[(3aS,4R,6aR)-2-benzyloctahydrocyclopenta[c]pyrrol-4-yl]-2,3-diphenylpropanamide] |
| 17300 nM | CC(Cc1ccccc1)C(=O)N[C@@H]1CC[C@H]2CN(Cc3ccccc3)C[C@H]21 (stereo partly drawn) [Example 26, N-[(3aS,4R,6aR)-2-benzyloctahydrocyclopenta[c]pyrrol-4-yl]-2-methyl-3-phenylpropanamide] |
| 9700 nM | CC(C)(C(=O)N[C@@H]1CC[C@H]2CN(Cc3ccccc3)C[C@H]21)c1ccccc1 [Example 27, N-[(3aS,4R,6aR)-2-benzyloctahydrocyclopenta[c]pyrrol-4-yl]-2-methyl-2-phenylpropanamide] |
| 13900 nM | O=C(N[C@@H]1CC[C@H]2CN(Cc3ccccc3)C[C@H]21)C1(c2ccccc2)CC1 [Example 28, N-[(3aS,4R,6aR)-2-benzyloctahydrocyclopenta[c]pyrrol-4-yl]-1-phenylcyclopropanecarboxamide] |

Same assay, conditions: 60 minute pre-incubation with compound, 2 μM nifedipine, depolarized with 80 mM KCl

| IC50 | SMILES |
| --- | --- |
| 1000 nM | O=C(N[C@H]1CC[C@H]2CN(Cc3cccc(C(F)(F)F)c3)C[C@H]21)C1CCCCCC1 (relative stereo) [Example 128, N-{(3aS*,4S*,6aR*)-2-[3-(trifluoromethyl)benzyl]octahydrocyclopenta[c]pyrrol-4-yl}cycloheptanecarboxamide] |
| 2900 nM | O=C(N[C@H]1CC[C@H]2CN(Cc3cccc(C(F)(F)F)c3)C[C@H]21)C1CCCC1 (relative stereo) [Example 129, N-{(3aS*,4S*,6aR*)-2-[3-(trifluoromethyl)benzyl]octahydrocyclopenta[c]pyrrol-4-yl}cyclopentanecarboxamide] |
| 700 nM | O=C(CC(c1ccccc1)c1ccccc1)N[C@H]1CC[C@H]2CN(Cc3cccc(C(F)(F)F)c3)C[C@H]21 (relative stereo) [Example 131, 3,3-diphenyl-N-{(3aS*,4S*,6aR*)-2-[3-(trifluoromethyl)benzyl]octahydrocyclopenta[c]pyrrol-4-yl}propanamide] |
| 900 nM | O=C(N[C@H]1CC[C@H]2CN(Cc3cccc(C(F)(F)F)c3)C[C@H]21)C(c1ccccc1)c1ccccc1 (relative stereo) [Example 135, 2,2-diphenyl-N-{(3aS*,4S*,6aR*)-2-[3-(trifluoromethyl)benzyl]octahydrocyclopenta[c]pyrrol-4-yl}acetamide] |
| 1100 nM | O=C(N[C@H]1CC[C@H]2CN(Cc3cccc(C(F)(F)F)c3)C[C@H]21)C(c1ccc(F)cc1)c1ccc(F)cc1 (relative stereo) [Example 136, 2,2-bis(4-fluorophenyl)-N-{(3aS*,4S*,6aR*)-2-[3-(trifluoromethyl)benzyl]octahydrocyclopenta[c]pyrrol-4-yl}acetamide] |
| 600 nM | CC(C)C[C@H](NC(=O)OC(C)(C)C)C(=O)N[C@@H]1CC[C@@H]2CN(Cc3cccc(C(F)(F)F)c3)C[C@@H]21 (relative stereo) [Example 137, N^2-(tert-butyloxycarbonyl)-N^1-{(3aR*,4R*,6aS*)-2-[3-(trifluoromethyl)benzyl]octahydrocyclopenta[c]pyrrol-4-yl}-L-leucinamide] |
| 600 nM | O=C(CC(c1ccccc1)c1ccccc1)N[C@@H]1CC[C@H]2CN(Cc3cccc(C(F)(F)F)c3)C[C@H]21 (relative stereo) [Example 141, 3,3-diphenyl-N-{(3aS*,4R*,6aR*)-2-[3-(trifluoromethyl)benzyl]octahydrocyclopenta[c]pyrrol-4-yl}propanamide] |
| 69700 nM | c1ccc(CN2C[C@@H]3CC[C@@H](NC4CC4)[C@@H]3C2)cc1 (relative stereo) [Example 197, (3aS*,4R*,6aR*)-2-benzyl-N-cyclopropyloctahydrocyclopenta[c]pyrrol-4-amine] |
| 40400 nM | c1ccc(CN2C[C@@H]3CC[C@H](NC4CC4)[C@@H]3C2)cc1 (relative stereo) [Example 198, (3aS*,4S*,6aR*)-2-benzyl-N-cyclopropyloctahydrocyclopenta[c]pyrrol-4-amine] |
| 1000 nM | O=S(=O)(c1cccc(C(F)(F)F)c1)N(C1CC1)[C@@H]1CC[C@H]2CN(Cc3ccccc3)C[C@H]21 (relative stereo) [Example 200, N-[(3aS*,4R*,6aR*)-2-benzyloctahydrocyclopenta[c]pyrrol-4-yl]-N-cyclopropyl-3-(trifluoromethyl)benzenesulfonamide] |
| 5200 nM | O=S(=O)(c1cccc(C(F)(F)F)c1)N(C1CC1)[C@H]1CC[C@H]2CNC[C@H]21 (relative stereo) [Example 201, N-cyclopropyl-N-[(3aS*,4S*,6aR*)-octahydrocyclopenta[c]pyrrol-4-yl]-3-(trifluoromethyl)benzenesulfonamide] |
| 600 nM | O=S(=O)(N[C@H]1CC[C@H]2CN(Cc3cccc(C(F)(F)F)c3)C[C@H]21)c1cccc(C(F)(F)F)c1 (single isomer, unassigned) [Example 186, 3-(trifluoromethyl)-N-{(3aS*,4S*,6aR*)-2-[3-(trifluoromethyl)benzyl]octahydrocyclopenta[c]pyrrol-4-yl}benzenesulfonamide] |

Second part, the compound before the results:

| SMILES | IC50 |
| --- | --- |
| O=C(N[C@H]1CC[C@H]2CN(Cc3cccc(C(F)(F)F)c3)C[C@H]21)C1CCCCC1 (relative stereo) [Example 127, N-{(3aS*,4S*,6aR*)-2-[3-(trifluoromethyl)benzyl]octahydrocyclopenta[c]pyrrol-4-yl}cyclohexanecarboxamide] | 1500 nM |
| O=C(N[C@@H]1CC[C@H]2CN(Cc3ccccc3)C[C@H]21)C(C1CCCCC1)C1CCCCC1 [Example 20, N-[(3aS,4R,6aR)-2-benzyloctahydrocyclopenta[c]pyrrol-4-yl]-2,2-dicyclohexylacetamide] | 1800 nM |
| CC(C)Cc1ccc([C@H](C)C(=O)N[C@@H]2CC[C@H]3CN(Cc4ccccc4)C[C@H]32)cc1 [Example 23, (2S)—N-[(3aS,4R,6aR)-2-benzyloctahydrocyclopenta[c]pyrrol-4-yl]-2-(4-isobutylphenyl)propanamide] | 2500 nM |

Same assay, conditions: IMR-32, @ 10 μM, 3 minute pre-incubation (*), read-out: percent inhibition

| inhibition at 10 µM | SMILES |
| --- | --- |
| 85% | CC(C)C(C(=O)N1C[C@H]2CC[C@H](NCc3ccccc3)[C@H]2C1)c1ccccc1 (relative stereo) [Example 216, (3aR*,4S*,6aS*)-N-benzyl-2-(3-methyl-2-phenylbutanoyl)octahydrocyclopenta[c]pyrrol-4-amine] |
| 25% | C[C@H](C(=O)N[C@@H]1CC[C@H]2CN(Cc3ccccc3)C[C@H]21)c1ccccc1 [Example 19, (2S)—N-[(3aS,4R,6aR)-2-benzyloctahydrocyclopenta[c]pyrrol-4-yl]-2-phenylpropanamide] |
